Literature values as cited in US20230037660A1, “METHODS OF TREATING VASCULAR LESIONS AND MALFORMATIONS” (priority 2019, published 2023).

Tested on: diseased tissue / blood vessels
Details: ICG alone, not conjugated

CC1(C)C(/C=C/C=C/C=C/C=C2\N(CCCCS(=O)(=O)O)c3ccc4ccccc4c3C2(C)C)=[N+](CCCCS(=O)(=O)[O-])c2ccc3ccccc3c21 [ICG, indocyanine green]
Fluorescence behaviour of the dye alone after injection: transiently lights up blood vessels immediately after injection
